Source: patent US20080228408A1, “Method for Determining the State of an Ensemble of Cells and System for the Implementation of the Method” (priority 2005, published 2008)

Tested on: neuronal cells
Test: Toxicogenomic DNA chip test: gene expression level (RES) in cells exposed to the compound compared to unexposed cells
Format: cell-based
Conditions: Neuron
Text: One wishes to carry out the evaluation of the toxicity of a collection of (15) pesticides using a toxicogenomic analysis of the impact of these pesticides on neuronal cells, according to 4 modes of exposure of the cells to the compounds:
DNA chips built specifically to test the expression level of the 51 genes in cells under study, each chip being configured only for one gene in our case, each chip allowing to carry out for each gene a redundant number of measurements (16) in order to stabilize the levels of expression by analysing the results on average. The spots on the chips are numbered sp1 to sp16.
An automated device D5 allowing, on signal of execution of the C2 test, to take a E1 sample of the cell culture C (non exposed) and a E2 sample of the cell culture C exposed to the compound by the device described previously under the conditions specified with the configuration, then to use the D1 device to select a DNA chip corresponding to the gene specified at the time of the configuration, and to put the samples E1 and E2 thus obtained in the presence of the aforementioned DNA chip according to the methods described in the D1 device,
The result of a test, RES, transmitted by the Resource Unit to the PC, is a raw numerical value which indicates the expression level of the gene indicated in the configuration, for the cell exposed to the compound under the conditions of concentration and exposure duration specified in the configuration, compared to the expression level of the same gene in an unexposed cell of identical nature.
The following results are based on 3 evaluations, each using a different strategy, the target cells being neuronal cells, the mode of exposure being Expo11.
The results presented in table 2 show the values obtained in (052) for the evaluation of Paraquat according to the 4 modes Expo11, Expo12, Expo21, Expo22 carried out. The missing data are not relevant (ranging between 0.5 and 2 strictly).

SMILES: C[n+]1ccc(-c2cc[n+](C)cc2)cc1 [Paraquat]
- A2M gene expression level RES (exposed/unexposed cells) (C1 (IC50), 24 h (Expo11)): 0.43
- AITCH gene expression level RES (exposed/unexposed cells) (C1 (IC50), 24 h (Expo11)): 0.13
- ALB gene expression level RES (exposed/unexposed cells) (C1 (IC50), 24 h (Expo11)): 0.57
- APAF1 gene expression level RES (exposed/unexposed cells) (C1 (IC50), 24 h (Expo11)): 0.47
- AR gene expression level RES (exposed/unexposed cells) (C1 (IC50), 24 h (Expo11)): 0.39
- ATF6 gene expression level RES (exposed/unexposed cells) (C1 (IC50), 24 h (Expo11)): 0.48
- ATM gene expression level RES (exposed/unexposed cells) (C1 (IC50), 24 h (Expo11)): 0.42
- BAX gene expression level RES (exposed/unexposed cells) (C1 (IC50), 24 h (Expo11)): 0.40
- BCL2 gene expression level RES (exposed/unexposed cells) (C1 (IC50), 24 h (Expo11)): 0.44
- BZRP gene expression level RES (exposed/unexposed cells) (C1 (IC50), 24 h (Expo11)): 0.53
- C12ORF8 gene expression level RES (exposed/unexposed cells) (C1 (IC50), 24 h (Expo11)): 0.57
- CALR gene expression level RES (exposed/unexposed cells) (C1 (IC50), 24 h (Expo11)): 0.52
- CDC25C gene expression level RES (exposed/unexposed cells) (C1 (IC50), 24 h (Expo11)): 0.62
- CDK4 gene expression level RES (exposed/unexposed cells) (C1 (IC50), 24 h (Expo11)): 0.59
- CDKN1A gene expression level RES (exposed/unexposed cells) (C1 (IC50), 24 h (Expo11)): 0.46
- CREB1 gene expression level RES (exposed/unexposed cells) (C1 (IC50), 24 h (Expo11)): 0.64
- CTSB gene expression level RES (exposed/unexposed cells) (C1 (IC50), 24 h (Expo11)): 0.51
- CTSD gene expression level RES (exposed/unexposed cells) (C1 (IC50), 24 h (Expo11)): 0.39
- EGF gene expression level RES (exposed/unexposed cells) (C1 (IC50), 24 h (Expo11)): 0.47
- EPHX1 gene expression level RES (exposed/unexposed cells) (C1 (IC50), 24 h (Expo11)): 0.45
- FOS gene expression level RES (exposed/unexposed cells) (C1 (IC50), 24 h (Expo11)): 0.43
- GADD45A gene expression level RES (exposed/unexposed cells) (C1 (IC50), 24 h (Expo11)): 0.54
- GPX1 gene expression level RES (exposed/unexposed cells) (C1 (IC50), 24 h (Expo11)): 0.49
- GSS gene expression level RES (exposed/unexposed cells) (C1 (IC50), 24 h (Expo11)): 0.54
- GSTM3 gene expression level RES (exposed/unexposed cells) (C1 (IC50), 24 h (Expo11)): 0.71
- HOXD1 gene expression level RES (exposed/unexposed cells) (C1 (IC50), 24 h (Expo11)): 0.44
- HSPA5 gene expression level RES (exposed/unexposed cells) (C1 (IC50), 24 h (Expo11)): 0.55
- HSPA9B gene expression level RES (exposed/unexposed cells) (C1 (IC50), 24 h (Expo11)): 0.58
- JUN gene expression level RES (exposed/unexposed cells) (C1 (IC50), 24 h (Expo11)): 0.61
- MDM2 gene expression level RES (exposed/unexposed cells) (C1 (IC50), 24 h (Expo11)): 0.37
- NFKB1 gene expression level RES (exposed/unexposed cells) (C1 (IC50), 24 h (Expo11)): 0.54
- NOS2A gene expression level RES (exposed/unexposed cells) (C1 (IC50), 24 h (Expo11)): 0.54
- PARA gene expression level RES (exposed/unexposed cells) (C1 (IC50), 24 h (Expo11)): 0.38
- PGR gene expression level RES (exposed/unexposed cells) (C1 (IC50), 24 h (Expo11)): 0.42
- RAD50 gene expression level RES (exposed/unexposed cells) (C1 (IC50), 24 h (Expo11)): 0.63
- RAD51 gene expression level RES (exposed/unexposed cells) (C1 (IC50), 24 h (Expo11)): 0.49
- SOD1 gene expression level RES (exposed/unexposed cells) (C1 (IC50), 24 h (Expo11)): 0.76
- TF1 gene expression level RES (exposed/unexposed cells) (C1 (IC50), 24 h (Expo11)): 0.68
- THBS1 gene expression level RES (exposed/unexposed cells) (C1 (IC50), 24 h (Expo11)): 0.39
- TP53 gene expression level RES (exposed/unexposed cells) (C1 (IC50), 24 h (Expo11)): 0.54
- TUBA1 gene expression level RES (exposed/unexposed cells) (C1 (IC50), 24 h (Expo11)): 0.38
- XBP1 gene expression level RES (exposed/unexposed cells) (C1 (IC50), 24 h (Expo11)): 0.50
- A2M gene expression level RES (exposed/unexposed cells) (C1 (IC50), 48 h (Expo12)): 0.03
- AITCH gene expression level RES (exposed/unexposed cells) (C1 (IC50), 48 h (Expo12)): 0.03
- ALB gene expression level RES (exposed/unexposed cells) (C1 (IC50), 48 h (Expo12)): 0.01
- APAF1 gene expression level RES (exposed/unexposed cells) (C1 (IC50), 48 h (Expo12)): 0.05
- AR gene expression level RES (exposed/unexposed cells) (C1 (IC50), 48 h (Expo12)): 0.04
- ATF6 gene expression level RES (exposed/unexposed cells) (C1 (IC50), 48 h (Expo12)): 0.05
- ATM gene expression level RES (exposed/unexposed cells) (C1 (IC50), 48 h (Expo12)): 0.04
- BAX gene expression level RES (exposed/unexposed cells) (C1 (IC50), 48 h (Expo12)): 0.05
- BCL2 gene expression level RES (exposed/unexposed cells) (C1 (IC50), 48 h (Expo12)): 0.04
- BZRP gene expression level RES (exposed/unexposed cells) (C1 (IC50), 48 h (Expo12)): 0.04
- C12ORF8 gene expression level RES (exposed/unexposed cells) (C1 (IC50), 48 h (Expo12)): 0.05
- CALR gene expression level RES (exposed/unexposed cells) (C1 (IC50), 48 h (Expo12)): 0.04
- CDC25C gene expression level RES (exposed/unexposed cells) (C1 (IC50), 48 h (Expo12)): 0.04
- CDK4 gene expression level RES (exposed/unexposed cells) (C1 (IC50), 48 h (Expo12)): 0.06
- CDKN1A gene expression level RES (exposed/unexposed cells) (C1 (IC50), 48 h (Expo12)): 0.02
- CREB1 gene expression level RES (exposed/unexposed cells) (C1 (IC50), 48 h (Expo12)): 0.03
- CTSB gene expression level RES (exposed/unexposed cells) (C1 (IC50), 48 h (Expo12)): 0.05
- CTSD gene expression level RES (exposed/unexposed cells) (C1 (IC50), 48 h (Expo12)): 0.03
- EGF gene expression level RES (exposed/unexposed cells) (C1 (IC50), 48 h (Expo12)): 0.04
- EPHX1 gene expression level RES (exposed/unexposed cells) (C1 (IC50), 48 h (Expo12)): 0.07
- FOS gene expression level RES (exposed/unexposed cells) (C1 (IC50), 48 h (Expo12)): 0.04
- GADD45A gene expression level RES (exposed/unexposed cells) (C1 (IC50), 48 h (Expo12)): 0.04
- GPX1 gene expression level RES (exposed/unexposed cells) (C1 (IC50), 48 h (Expo12)): 0.02
- GSS gene expression level RES (exposed/unexposed cells) (C1 (IC50), 48 h (Expo12)): 0.04
- GSTM3 gene expression level RES (exposed/unexposed cells) (C1 (IC50), 48 h (Expo12)): 0.06
- HOXD1 gene expression level RES (exposed/unexposed cells) (C1 (IC50), 48 h (Expo12)): 0.03
- HSPA5 gene expression level RES (exposed/unexposed cells) (C1 (IC50), 48 h (Expo12)): 0.06
- HSPA9B gene expression level RES (exposed/unexposed cells) (C1 (IC50), 48 h (Expo12)): 0.05
- JUN gene expression level RES (exposed/unexposed cells) (C1 (IC50), 48 h (Expo12)): 0.05
- MDM2 gene expression level RES (exposed/unexposed cells) (C1 (IC50), 48 h (Expo12)): 0.05
- NFKB1 gene expression level RES (exposed/unexposed cells) (C1 (IC50), 48 h (Expo12)): 0.04
- NOS2A gene expression level RES (exposed/unexposed cells) (C1 (IC50), 48 h (Expo12)): 0.04
- PARA gene expression level RES (exposed/unexposed cells) (C1 (IC50), 48 h (Expo12)): 0.04
- PGR gene expression level RES (exposed/unexposed cells) (C1 (IC50), 48 h (Expo12)): 0.04
- RAD50 gene expression level RES (exposed/unexposed cells) (C1 (IC50), 48 h (Expo12)): 0.06
- RAD51 gene expression level RES (exposed/unexposed cells) (C1 (IC50), 48 h (Expo12)): 0.05
- SOD1 gene expression level RES (exposed/unexposed cells) (C1 (IC50), 48 h (Expo12)): 0.05
- TF1 gene expression level RES (exposed/unexposed cells) (C1 (IC50), 48 h (Expo12)): 0.05
- THBS1 gene expression level RES (exposed/unexposed cells) (C1 (IC50), 48 h (Expo12)): 0.05
- TP53 gene expression level RES (exposed/unexposed cells) (C1 (IC50), 48 h (Expo12)): 0.05
- TUBA1 gene expression level RES (exposed/unexposed cells) (C1 (IC50), 48 h (Expo12)): 0.04
- XBP1 gene expression level RES (exposed/unexposed cells) (C1 (IC50), 48 h (Expo12)): 0.05
- A2M gene expression level RES (exposed/unexposed cells) (C2 (IC50/10), 24 h (Expo21)): 0.14
- AITCH gene expression level RES (exposed/unexposed cells) (C2 (IC50/10), 24 h (Expo21)): 0.08
